Laboratory results reported in US7384915B2, “Chimeric insulin-gad proteins for treating patients with type 1 diabetes or at risk of developing type 1 diabetes” (Alexion Pharmaceuticals, Inc., priority 1997, dated 2008).
Like-named read-outs stand apart in the source and are kept apart here.

Columns and labels:
[1] = system: non-diabetic male NOD recipients
Protocol: CYTOXAN induction experiments: CYTOXAN (Cyclophosphamide) treatment can increase the incidence and accelerate the onset of diabetes in non-diabetic NOD mice. Randomly selected, non-diabetic male NOD mice, which were 100 to 110 days of age, were injected (ip) with cyclophosphamide (250 mg/kg) on day 0.
All the mice were subjected to urine glucose measurement 2-3 times per week for a period of 21 days after cyclophosphamide injection. The onset of diabetes was recorded as the first point at which two consecutive days of positive urine glucose results were obtained. Blood glucose was also measured to confirm the urine glucose results. […] At day 21, these mice were sacrificed and examined histologically.

[2] = system: non-diabetic male NOD mice; test: CYTOXAN (cyclophosphamide) induced IDDM model, antigen treatment; assay type: in vivo, mouse; conditions: FIG. 3
From the text: Experimental Methods Non-obese diabetic (NOD) mice are a strain of mice that are prone to the development of diabetes, and represent an accepted model system for the study of diabetes mellitus. These mice, designated NOD/MrkTacfBR, were purchased from Taconic Farms (Germantown, N.Y.). NOD SCID mice, designated NOD/SCID, are available from the Jackson Laboratories, Bar Harbor, Me. The incidence of diabetes by 200 days of age in these mice is 80% in females and 50% in males. At 110 days of age, fewer than 15% of the male NOD mice became diabetic. […] In contrast, animals treated with either ICB or either of GAD 65 250-273 or 520-555 peptides, experienced reductions to less than 50% incidence of diabetes. The therapeutic effects of treatment with combinations of ICB and the two GAD peptides were then examined (FIG. 3).

[3] = system: NOD/SCID mice injected with diabetogenic spleen cells; test: NOD/SCID adoptive transfer model of IDDM; assay type: in vivo, mouse; conditions: IV, 300 ugs of antigen twice daily every other day, day 3 to day 9 after spleen cell transfer; FIG. 5
Protocol: Experiments in the NOD/SCID Adoptive Transfer Model: Spleen mononuclear cells were harvested from diabetic NOD mice of recent disease onset (diabetic not more than 3 weeks) and about 35×10^6 of these spleen cells in 0.2 ml of PBS were injected intravenously into 6-8 week old NOD/SCID mice. Onset of diabetes was monitored biweekly by urine glucose testing and confirmed by blood glucose testing on day 28 relative to the time of spleen cell transfer. At day 28, these mice were sacrificed and examined histologically.
Diabetogenic splenic mononuclear cells were harvested from newly diabetic NOD mice (onset less than 3 weeks previous). To initiate the destruction of islet beta cells and the development of diabetes, 8-12 week old NOD/SCID mice were injected intravenously with 35×10^6 diabetogenic spleen cells. The incidence and onset of diabetes were monitored biweekly by urine glucose testing and confirmed by blood glucose testing at the end of the experiment. The average onset time of diabetes after disease induction was approximately 25 days. IV treatment with IG2, IG3, or islet beta cell antigens was initiated on day 3. Animals were treated with 300 ugs of antigen twice daily every other day for a period of six days (from day 3 to day 9, where the time of spleen cell transfer was day 0).

Molecule: O=P1(N(CCCl)CCCl)NCCCO1 (centres unmarked) [CYTOXAN, cyclophosphamide]
- # Diabetic/Total ([1]; CYTOXAN 200 mg/kg): 2/7
- % diabetic ([1]; CYTOXAN 200 mg/kg): 28.6%
- Mean onset time ([1]; CYTOXAN 200 mg/kg): 12
- # Diabetic/Total ([1]; CYTOXAN 250 mg/kg): 5/7
- % diabetic ([1]; CYTOXAN 250 mg/kg): 71.4%
- Mean onset time ([1]; CYTOXAN 250 mg/kg): 11
- # Diabetic/Total ([1]; CYTOXAN 300 mg/kg): 5/7
- % diabetic ([1]; CYTOXAN 300 mg/kg): 71.4%
- Mean onset time ([1]; CYTOXAN 300 mg/kg): 12.6

Molecule: GAD 65 520-555: human GAD 65 peptide 520-555, sequence corresponding to amino acid residues 139-173 of SEQ ID NO:2 (EERMSRLSKVAPVIKARMMEYGTTMVSYQPLGDKV; IG2 fusion protein for hGAD65 (human glutamate decarboxylase))
- effect of addition to the ICB with GAD 65 250-273 combination on therapeutic efficacy [2]: appeared to inhibit the therapeutic efficacy

Molecule: ICB: Oxidized bovine insulin Chain B purchased from Sigma (catalog no. I-6383)
- onset of disease in NOD/SCID recipients [3]: only a slight delay in disease onset
